{"source": "patent US20070025997A1", "about": "“Use of biomolecular targets in the treatment and visualization of brain tumors” (priority 2002, published 2007)", "key": {"MMP-2": {"tested_on": "MMP-2", "assay": "Gelatin zymography of conditioned media (MMP-2 activation)", "format": "cell-based, human", "procedure": "Zymography: Serum-free media from G140 cell lines were stimulated with Collagen type I (10 μg/mL and collected after 24 hr. In some experiments, GM6001 (25 μM, 50 μM) was added to the media. The media was mixed with Tris-Gycine SDS Sample buffer (2×) and 20 μg of protein was subjected to 10% SDS-polyacrylamide gel electrophoresis (Invitrogen, Inc.) using 0.1% gelatin. After electrophoresis, gels were incubated in 2.5% Triton X-100 (Renaturing Buffer, Invitrogen, Inc.) for 30 minutes twice to remove SDS, and replaced with 50 mM Tris-Hcl, pH 7.5 containing 0.15 M NaCl, 10 mM CaCl2, and 0.02% NaN3 (Developing Buffer, Invitrogen, Inc.) overnight and then stained with Coomassie Blue R-250 for 30 minutes."}, "DDR1 [1]": {"tested_on": "DDR1", "assay": "Immunoprecipitation for DDR1 phosphorylation", "format": "cell-based, human", "conditions": "G140 parental cells; 10 μg/ml soluble", "procedure": "(§1) Immunoprecipitation for DDR1 phosphorylation: Rat tail collagen type 1 was purchased from Collaborative Biomedical Products (Bedford, Mass., USA). Cells were stimulated with 10 μg/ml soluble collagen type 1 for various periods of time. Cell lysates were prepared in RIPA buffer and immunoprecipitation was performed by incubating 1000 μg of cell extracts with DDR1 (C-20) antibody overnight at 4° C. Protein A beads (Santa Cruz Biotechnology: 50 μl) were added for 1 hr; the beads were washed three times with wash buffer and aliquots of the supernatant were subjected to SDS-PAGE. The blots were probed with monoclonal anti-phosphotyrosine antibody (4G10; Upstate Biotechnology Inc.) and visualized using the enhanced chemiluminescence (ECL) system (Amersham Pharmacia Biotech, Uppsala, Sweden). The blots were stripped and reprobed with a polyclonal antibody for DDR1 (C-20). Western Blot. The blots were probed with β-actin antibody to confirm equal loading."}, "MMP-1, MMP-2 and MMP-9": {"tested_on": "MMP-1, MMP-2 and MMP-9", "assay": "Gelatin zymography of media of DDR1 overexpressing glioma cells (Example 1)", "format": "cell-based, human", "conditions": "20 ug/ml; 48 hrs; serum-free medium", "procedure": "DDR1 overexpressing glioma cells reveal increased prescence of MMP-9, MMP-2 and MMP-1. Cells overexpressing DDR1a and DDR1b, DDR1 ex (extracellular domain construct) and Emmprin ex (extracellular domain construct), Ht1080 cells and human Fibroblasts, cells expressing empty vector were plated onto plates. After 24 hrs of plating, media was replaced with Serum-free medium with or without 20 ug/ml Type 1 Collagen and were incubated for 48 hrs at 37° C. Media from cells was collected and concentrated. 10 ug of media from each sample was resolved on a polyacrylamide gel (10%) containing 0.1% gelatin. Following electrophoresis, gels were washed twice with 5% Triton X-100 (30 min each). After washing, the gels were incubated for 24 h at 37° C. in the presence of 50 mM Tris-HCl, 5 mM CaCl2, 5 μM ZnCl2, pH 7.5, stained with Coomassie Brilliant Blue R-250 for 30 min and then destained. MMP-1, MMP-2 and MMP-9 production was induced by native type I collagen."}, "DDR1 [2]": {"biological_target": "T1, DDR1 (Homo sapiens, UniProt Q08345)", "assay": "DDR1 activation in Glioma cells, anti-phosphotyrosine western blot", "format": "cell-based", "parameters": "DDR1 is phosphorylated as a 125 kD (full length) protein", "conditions": "60 minutes, 10 ug/ml (EGF 20 ng/ml)", "procedure": "DDR1 activation in Glioma cells. DDR1 Glioma cells were stimulated with 10 ug/ml of Type1 collagen, 10 ug/ml Vitrogen, 10 ug/ml Fibronectin and 20 ng/ml EGF for 60 minutes. After stimulation, cells were lysed in RIPA buffer and resolved a 10% polyacrylamide gel (10%) gel. Lane 1, Nonstimulates, Lane 2, Type 1 Collagen (10 ug/ml, Lane 3 stimulated with Vitrogen (10 μg/ml), Lane 4 stimulated with human Fibronectin (10 μg/ml), Lane 5 stimulated with EGF 20 ng/ml) for 60 minutes. Cell lysates were analysed by anti-phosphotyrosine (4G10, Upstate Biotechnology) panel a, anti-DDR1 (C-20, Santa Cruz Biotechnology Inc.) panel b, and anti-DDR1 N-terminal H-126 (SCBT) panel c by western blotting. […] DDR1 is proteolytically cleaved in response to ligand stimulation. A 52 kD soluble protein was detected in the media with H-126, a N-terminal anti-DDR1 antibody (panel c)."}, "DDR1 [3]": {"biological_target": "T1, DDR1", "assay": "DDR1 internalization, Cellomics ArrayScan", "format": "cell-based", "parameters": "DDR1 is phosphorylated as a 125 kD (full length) protein", "conditions": "human Glioma derived cells; soluble, 30 minutes", "procedure": "Cells are rinsed once with HBSS and fixed with 3.7% neutral buffered formalin. The fixation solution is aspirated, and the plate washed with blocking buffer, and then incubated with permeabilization buffer for 10 minutes. The cells are then stained with fluorescence conjugated secondary antibody solution containing 10 ug/ml Hoechst 33342 (to stain nuclei) for 30 minutes at room temperature. Plates are washed twice, sealed, and stored in HBSS at 4 C. Images are acquired using the ArrayScan HCS system and internalized receptors quantitated using a proprietary algorithm. The algorithm measures the appearance and intensity of fluorescent receptor aggregates inside the cell. These measurements are represented as mean cytoplasmic intensity (amount of antibody-receptor complex inside the cell) and mean cytoplasmic texture (a measure of the endosome aggregates). Antibodies that trigger receptor internalization are further evaluated. Antibodies that bind to DDR1 on human glioma cells and become internalized are of particular interest. In some instances endocytosis serves as a surrogate marker for other therapeutic biologic effects, such as growth inhibition.\nDDR1 internalization. Human Glioma derived were treated with soluble collagen I for 30 minutes and then stained for DDR1. The Cellomics ArrayScan fluorescent microscope instrument was used to identify and quantitate internalized DDR1 (FIG. 8)."}, "DDR1 [4]": {"biological_target": "T1, DDR1", "assay": "Immunoprecipitation for DDR1 phosphorylation", "format": "cell-based", "parameters": "expressed in transfected cells; host or cells: G140 glioma cells stably transduced with a pLEN retroviral vector carrying DDR1a or DDR1b", "conditions": "10 μg/ml soluble", "procedure": "as §1"}, "G140-DDR1a cells [5]": {"tested_on": "G140-DDR1a cells", "assay": "Invasion assay through Matrigel-coated Fluoroblok membranes", "format": "cell-based, human", "conditions": "25 μM", "procedure": "(§2) Migration and Invasion Assays: Migration assays were performed using 24-well fluoroblok chambers (BD Biosciences, […] pore size). Cells overexpressing DDR1a, DDR1 b, vector alone (Mock) and parental cells were trypsinized and 1×10^6 cells were suspended in DMEM plus 1% serum. 100, 000 cells were placed in the upper chambers (Becton Dickenson-Fluoroblok plates-8 μm) in triplicate. DMEM with 5% serum was added to the lower chambers. After 4 hours, cells adhering to the underside of the membrane were stained with 4 μg/ml Calcein AM (Molecular Probes, Inc.) and fluorescence emitted by cells that have migrated through the chamber to the underside of the filter was measured at λs of 530/590 nm using a CytoFlor plate reader (Series 4000, Perspective Biosystems). For Invasion Assays: Rat tail Collagen type I (BD Biosciences, 10 μg/ml), human Collagen type IV (BD Biosciences, […]), human Fibronectin (BD Biosciences, 5 μg/ml) were used to coat the underside of the chambers and Fluoroblok plates previously coated with Matrigel (BD Biosciences, 24 wells) were used. […] The cells were allowed to invade through the matrices at 37° C. for 16 hrs and stained with Calcein AM and fluorescence emitted by cells was measured at Xs of 530/590 nm using a CytoFlor plate reader (Series 4000, Perspective Biosystems). […]"}, "G140-DDR1a cells [6]": {"tested_on": "G140-DDR1a cells", "assay": "Invasion assay through Collagen type 1 coated membranes", "format": "cell-based, human", "conditions": "25 μM", "procedure": "as §2"}, "glioma cells": {"tested_on": "glioma cells", "assay": "Migration assay in Fluoroblok chambers", "format": "cell-based, human", "conditions": "glioma cells overexpressing DDR1a", "procedure": "as §2"}}, "note": "“Also recorded” adds a separate entry of the source.", "data": [{"molecule": "Collagen type 1: Rat tail collagen type 1, DDR1 ligand used to stimulate cells", "values": [{"measurement": "conversion of intermediate (64 kDa) to active form of MMP-2 (62 kDa)", "setting": "MMP-2; 10 μg/ml, G140-DDR1a overexpressing cells", "result": "increased conversion"}, {"measurement": "MMP-2 activation", "setting": "MMP-2; 10 μg/ml, G140 parental, G140-DDR1b and G140 mock cells", "result": "did not increase"}, {"measurement": "time of peak autophosphorylation of endogenous DDR1", "setting": "DDR1 [1]", "result": 60, "unit": "min"}, {"measurement": "MMP-1, MMP-2 and MMP-9 production", "setting": "MMP-1, MMP-2 and MMP-9", "result": "induced"}, {"measurement": "activation of pro-MMP-2 and Pro-MMP-1", "setting": "MMP-1, MMP-2 and MMP-9", "result": "Increased activation"}, {"measurement": "tyrosine phosphorylation of DDR1", "setting": "DDR1 [2]; listed as Type 1 Collagen", "result": "phosphorylated; also recorded: resulted in tyrosine phosphorylation of DDR1"}, {"measurement": "DDR1 internalization (mean cytoplasmic intensity, cytoplasmic texture)", "setting": "DDR1 [3]", "result": "induces DDR1 to appear in the cytoplasm"}, {"measurement": "time of maximal DDR1a phosphorylation", "setting": "DDR1 [4]; G140-DDR1a cells", "result": 60, "unit": "min"}, {"measurement": "time of peak phosphorylation of G140-DDR1b", "setting": "DDR1 [4]; G140-DDR1b cells", "result": 90, "unit": "min"}]}, {"molecule": "Fibronectin: human Fibronectin, used to stimulate DDR1 Glioma cells", "values": [{"measurement": "tyrosine phosphorylation of DDR1", "setting": "DDR1 [2]", "result": "phosphorylated; also recorded: resulted in tyrosine phosphorylation of DDR1"}]}, {"molecule": "EGF: EGF 20 ng/ml, used to stimulate DDR1 Glioma cells", "values": [{"measurement": "tyrosine phosphorylation of DDR1", "setting": "DDR1 [2]", "result": "phosphorylated; also recorded: resulted in tyrosine phosphorylation of DDR1"}]}, {"molecule": "CNC(=O)[C@H](Cc1c[nH]c2ccccc12)NC(=O)[C@@H](CC(=O)NO)CC(C)C", "note": "[GM6001]", "values": [{"measurement": "DDR1a mediated invasion through matrigel", "setting": "G140-DDR1a cells [5]", "result": "prevented"}, {"measurement": "DDR1a mediated invasion through matrigel", "setting": "G140-DDR1a cells [5]; listed as GM60001", "result": "inhibited"}, {"measurement": "DDR1a mediated invasion through collagen type 1", "setting": "G140-DDR1a cells [6]", "result": "prevented"}, {"measurement": "DDR1a mediated invasion through collagen type 1", "setting": "G140-DDR1a cells [6]; listed as GM60001", "result": "inhibited"}, {"measurement": "DDR1a stimulated activation / enzymatic activity of MMP-2", "setting": "MMP-2; 25 μm, G140-DDR1a cells, collagen 1 stimulation", "result": "effectively inhibited; also recorded: prevented"}, {"measurement": "migration of glioma cells", "setting": "glioma cells", "result": "prevented"}]}]}
